One test has as its system K. pneumoniae. The experiment in a line: Checkerboard assay with meropenem.
A further test deals with E. coli 1441. The test can be described thus: Antibiotic resistance profile of clinical isolate (Table S1). Type of test: cell-based, Escherichia coli. On the procedure: (§1) Each strain was grown in Mueller Hinton Broth (MH Broth), and 5 × 10^5 CFU/mL was used to evaluate antibacterial activity. Clinical carbapenem-resistant K. pneumoniae and E. coli isolates were collected at the AOU of Virology and Microbiology of the University of Campania “Luigi Vanvitelli”. […]
(§2) Table S1. Antibiotic resistance profile of K. pneumoniae and E. coli clinical isolates . MIC: Minimum Inhibitory
(§3) Concentration was expressed in µg/mL; S: Sensible; I: Intermediate; R: Resistant.
(§4) Antibiotic Resistance Profile of the Clinical Isolated Bacteria
(§5) Antibiotics MIC (µg/mL) Interpretation […]

The next test concerns E. coli 2267. Described as above. The test is classed as cell-based, Escherichia coli. The procedure: as §1, §2, §3, §4, §5
Another test deals with E. coli 3140. Described as above. The test is classed as cell-based, Escherichia coli. The procedure:
as §1, §2, §3, §4, §5

The subject of the next test is E. coli 716. The description is as above. The test is classed as cell-based, Escherichia coli. The procedure: as §1, §2, §3, §4, §5
The test system of a further test is E. coli 1376. The description is as above. Type of test: cell-based, Escherichia coli. On the procedure:
as §1, §2, §3, §4, §5

The test system of the next test is E. coli. The experiment in a line: Checkerboard assay with meropenem.
In the next test the test system is K. pneumoniae 1711. The experiment in a line: Antibiotic resistance profile of clinical isolate (Table S1). Type of test: cell-based, Klebsiella pneumoniae. On the procedure:
as §1, §2, §3, §4, §5

For another test, the system named is K. pneumoniae 1746. The description is as above. Type of test: cell-based, Klebsiella pneumoniae. On the procedure: as §1, §2, §3, §4, §5
In the next test the test system is K. pneumoniae 1745. The test is described as above. The test is classed as cell-based, Klebsiella pneumoniae. The procedure:
as §1, §2, §3, §4, §5

For another test, the system named is K. pneumoniae 311. The test is described as above. The test is classed as cell-based, Klebsiella pneumoniae. The procedure: as §1, §2, §3, §4, §5
Setting [1] is: Escherichia coli, Table S1, E. coli 2267, read-out: MIC.
The mark [2] stands for this setting: Klebsiella pneumoniae, Table S1, K. pneumoniae 1711, read-out: MIC.
Setting [3] is: Klebsiella pneumoniae, Table S1, K. pneumoniae 1745, read-out: MIC.

Converted amounts (≈) assume the structure as drawn. Where two headings read alike, the source gives them in different places.

Regarding `C[C@@H](O)[C@H]1C(=O)N2C(C(=O)O)=C(S[C@@H]3CN[C@H](C(=O)N(C)C)C3)[C@H](C)[C@H]12` [Meropenem], the MIC in the test with K. pneumoniae (Klebsiella pneumoniae, read-out: MIC of meropenem) was 5 µg/mL; with E. coli 1441 (Escherichia coli, 1441) it was 1 µg/mL (≈ 2.61 µM); in the test on E. coli 2267 (setting [1]) it was over 16 µg/mL; against E. coli 3140 (Escherichia coli, 3140), 0.5 µg/mL (≈ 1.3 µM); against E. coli 716 (Escherichia coli, 716) it was over 16 µg/mL; with E. coli 1376 (Escherichia coli, 1376) it was over 16 µg/mL. The MIC with E. coli (Escherichia coli, read-out: MIC of meropenem) was 5 µg/mL; with K. pneumoniae 1711 (setting [2]), over 16 µg/mL; against K. pneumoniae 1746 (Klebsiella pneumoniae, 1746) it was 1 µg/mL (≈ 2.61 µM); in the test on K. pneumoniae 1745 (setting [3]) it was over 16 µg/mL. Besides, the “MIC of antibiotic (meropenem) in combination” value stood at 0.625 µg/mL in the test with K. pneumoniae (combined with AR23 at 3.125 μM); 0.625 µg/mL in the test on K. pneumoniae (combined with RV-23 at 3.125 μM); 1.25 µg/mL with E. coli (combined with AR23 at 6.25 μM); 2.5 µg/mL in the test with E. coli (combined with Hylin-a1 at 3.125 μM); 2.5 µg/mL in the test with E. coli (combined with RV-23 at 6.25 μM). Also, the Interpretation result in the test on E. coli 1441 (Table S1, E. coli 1441) is on record as “S”; in the test on E. coli 2267 (Table S1, E. coli 2267) it was “R”; in the test on E. coli 3140 (Table S1, E. coli 3140), “S”; in the test with E. coli 716 (Table S1, E. coli 716), “R”; in the test on E. coli 1376 (Table S1, E. coli 1376), “R”; in the test on K. pneumoniae 1711 (Table S1, K. pneumoniae 1711), “R”. Moreover, the Interpretation entry in the test with K. pneumoniae 1746 (Table S1, K. pneumoniae 1746) is “S”; in the test with K. pneumoniae 1745 (Table S1, K. pneumoniae 1745) it was “R”.

On to Trimethoprim/sulfamethoxazole, for which the Interpretation entry is given as “S” in the test on E. coli 1441 (Table S1, E. coli 1441); “R” with E. coli 2267 (Table S1, E. coli 2267); “S” in the test on E. coli 3140 (Table S1, E. coli 3140); “R” in the test with E. coli 716 (Table S1, E. coli 716); “R” in the test with E. coli 1376 (Table S1, E. coli 1376); “R” with K. pneumoniae 1711 (Table S1, K. pneumoniae 1711). Moreover, the Interpretation result in the test with K. pneumoniae 1746 (Table S1, K. pneumoniae 1746) was “S”; in the test on K. pneumoniae 1745 (Table S1, K. pneumoniae 1745), “R”; with K. pneumoniae 311 (Table S1, K. pneumoniae 311), “S”. Also, the MIC is ≤ 1/19 in the test with E. coli 1441 (Table S1, E. coli 1441); > 4/76 in the test with E. coli 2267 (Table S1, E. coli 2267); ≤ 1/19 in the test on E. coli 3140 (Table S1, E. coli 3140); > 4/76 against E. coli 716 (Table S1, E. coli 716); > 4/76 in the test on E. coli 1376 (Table S1, E. coli 1376); > 4/76 against K. pneumoniae 1711 (Table S1, K. pneumoniae 1711). The MIC in the test with K. pneumoniae 1746 (Table S1, K. pneumoniae 1746) is recorded as ≤ 1/19; in the test on K. pneumoniae 1745 (Table S1, K. pneumoniae 1745), > 4/76; in the test with K. pneumoniae 311 (Table S1, K. pneumoniae 311), 2/38.

In the case of Meropenem-vaborbactam, the Interpretation entry is “S” with E. coli 1441 (Table S1, E. coli 1441); “R” with E. coli 2267 (Table S1, E. coli 2267); “S” in the test with E. coli 3140 (Table S1, E. coli 3140); “R” in the test with E. coli 716 (Table S1, E. coli 716); “R” with E. coli 1376 (Table S1, E. coli 1376); “R” with K. pneumoniae 1711 (Table S1, K. pneumoniae 1711). Further, the Interpretation result in the test on K. pneumoniae 1746 (Table S1, K. pneumoniae 1746) was “S”; in the test on K. pneumoniae 1745 (Table S1, K. pneumoniae 1745), “R”; in the test on K. pneumoniae 311 (Table S1, K. pneumoniae 311), “S”. The MIC in the test on E. coli 1441 (Table S1, E. coli 1441) was ≤ 2/8; against E. coli 3140 (Table S1, E. coli 3140), ≤ 2/8; with E. coli 716 (Table S1, E. coli 716), > 32/2; in the test on E. coli 1376 (Table S1, E. coli 1376), > 8/8; in the test with K. pneumoniae 1711 (Table S1, K. pneumoniae 1711), > 8/8; in the test on K. pneumoniae 1746 (Table S1, K. pneumoniae 1746), ≤ 2/8. The MIC with K. pneumoniae 1745 (Table S1, K. pneumoniae 1745) was > 8/8; in the test with K. pneumoniae 311 (Table S1, K. pneumoniae 311), 4/ 8.

`C[C@@H](O)[C@H]1C(=O)N2C(C(=O)O)=C(SCCN=CN)C[C@H]12` [Imipenem]: the MIC in the test on E. coli 1441 (Escherichia coli, 1441) was 4 µg/mL (≈ 13.4 µM); with E. coli 2267 (setting [1]), over 8 µg/mL; in the test on E. coli 3140 (Escherichia coli, 3140) it was 2 µg/mL (≈ 6.68 µM); in the test on E. coli 716 (Escherichia coli, 716), over 8 µg/mL; against E. coli 1376 (Escherichia coli, 1376), over 8 µg/mL; in the test on K. pneumoniae 1711 (setting [2]), over 8 µg/mL. Further, the MIC is 4 µg/mL (≈ 13.4 µM) in the test on K. pneumoniae 1746 (Klebsiella pneumoniae, 1746); over 8 µg/mL with K. pneumoniae 1745 (setting [3]); 2 µg/mL (≈ 6.68 µM) against K. pneumoniae 311 (Klebsiella pneumoniae, 311). The Interpretation entry is recorded as “I” in the test on E. coli 1441 (Table S1, E. coli 1441); “R” in the test with E. coli 2267 (Table S1, E. coli 2267); “S” in the test with E. coli 3140 (Table S1, E. coli 3140); “R” with E. coli 716 (Table S1, E. coli 716); “R” in the test on E. coli 1376 (Table S1, E. coli 1376); “R” in the test on K. pneumoniae 1711 (Table S1, K. pneumoniae 1711). In addition, the Interpretation result in the test on K. pneumoniae 1746 (Table S1, K. pneumoniae 1746) is reported as “I”; in the test on K. pneumoniae 1745 (Table S1, K. pneumoniae 1745), “R”; in the test on K. pneumoniae 311 (Table S1, K. pneumoniae 311) it was “S”.

Turning to `CNC(C)C1CCC(N)C(OC2C(N)CC(N)C(OC3OCC(C)(O)C(NC)C3O)C2O)O1` (stereo not shown) [Gentamicin], the MIC was at most 1 µg/mL with E. coli 1441 (Escherichia coli, 1441); at most 1 µg/mL with E. coli 2267 (Escherichia coli, 2267); at most 1 µg/mL in the test with E. coli 3140 (Escherichia coli, 3140); at most 1 µg/mL in the test on E. coli 716 (Escherichia coli, 716); over 4 µg/mL against E. coli 1376 (Escherichia coli, 1376); over 4 µg/mL in the test on K. pneumoniae 1711 (Klebsiella pneumoniae, 1711). Also, the minimum inhibitory concentration (MIC) was 2 µg/mL (≈ 4.19 µM) in the test with K. pneumoniae 1746 (Klebsiella pneumoniae, 1746); over 4 µg/mL in the test on K. pneumoniae 1745 (Klebsiella pneumoniae, 1745); over 4 µg/mL against K. pneumoniae 311 (Klebsiella pneumoniae, 311). The Interpretation result in the test on E. coli 1441 (Table S1, E. coli 1441) is given as “S”; in the test on E. coli 2267 (Table S1, E. coli 2267), “S”; in the test with E. coli 3140 (Table S1, E. coli 3140), “S”; in the test on E. coli 716 (Table S1, E. coli 716) it was “S”; in the test with E. coli 1376 (Table S1, E. coli 1376), “R”; in the test on K. pneumoniae 1711 (Table S1, K. pneumoniae 1711) it was “R”. For the same molecule, the Interpretation entry in the test with K. pneumoniae 1746 (Table S1, K. pneumoniae 1746) is recorded as “S”; in the test on K. pneumoniae 1745 (Table S1, K. pneumoniae 1745), “R”; with K. pneumoniae 311 (Table S1, K. pneumoniae 311) it was “R”.

Regarding Ceftazidime-avibactam, the Interpretation result with E. coli 1441 (Table S1, E. coli 1441) is recorded as “S”; in the test on E. coli 2267 (Table S1, E. coli 2267) it was “S”; in the test on E. coli 3140 (Table S1, E. coli 3140), “S”; in the test on E. coli 716 (Table S1, E. coli 716), “S”; in the test on E. coli 1376 (Table S1, E. coli 1376) it was “S”; with K. pneumoniae 1711 (Table S1, K. pneumoniae 1711), “R”. Moreover, the Interpretation entry in the test on K. pneumoniae 1746 (Table S1, K. pneumoniae 1746) is reported as “R”; with K. pneumoniae 1745 (Table S1, K. pneumoniae 1745), “R”; with K. pneumoniae 311 (Table S1, K. pneumoniae 311) it was “S”. In addition, the MIC with E. coli 2267 (Table S1, E. coli 2267) is on record as 8/4; against E. coli 716 (Table S1, E. coli 716), 8/4; in the test with K. pneumoniae 1711 (Table S1, K. pneumoniae 1711), > 8/4; in the test on K. pneumoniae 1746 (Table S1, K. pneumoniae 1746), > 8/4; against K. pneumoniae 1745 (Table S1, K. pneumoniae 1745) it was > 8/4; with K. pneumoniae 311 (Table S1, K. pneumoniae 311) it was 1/ 4.

For orientation: MIC means the smallest concentration in the dilution series that meets the test's criterion for growth inhibition.

Values taken from paper PMC12024264, “Frog Skin Peptides Hylin-a1, AR-23, and RV-23: Promising Tools Against Carbapenem-Resistant Escherichia coli and Klebsiella pneumoniae Infections” (Antibiotics, 2025).
